36 compounds from ChEMBL document CHEMBL4622892, “New class of alkynyl glycoside analogues as tyrosinase inhibitors” (Bioorg Med Chem Lett, 2020) can be followed below.

A value given as a limit tells only on which side of the number the result lay.

Assay [1] deals with T1, Mushroom tyrosinase (Agaricus bisporus, UniProt O42713+Q00024+C7FF04+C7FF05).
Description: Inhibition of mushroom tyrosinase using L-tyrosine as substrate
Assay [2] concerns the target T1, Mushroom tyrosinase. The source holds these as a separate data set.
Description: Inhibition of mushroom tyrosinase using L-DOPA as substrate

`CO[C@H]1O[C@H](CO)[C@@H](OCc2ccccc2)[C@H](OCc2ccccc2)[C@H]1OCc1ccccc1`: the IC50 in assay [1] and in assay [2] was more than 500 µM each time.
For `COC[C@H]1O[C@H](OC)[C@H](OCc2ccccc2)[C@@H](OCc2ccccc2)[C@@H]1OCc1ccccc1`, the concentration for half-maximal inhibition (IC50) (in general, the point on the concentration scale where inhibition reaches its midpoint) in assay [1] was more than 500 µM; in assay [2], 494 µM.
For `CC#CCOC[C@H]1OC(OC)[C@H](OCc2ccccc2)[C@@H](OCc2ccccc2)[C@@H]1OCc1ccccc1` (some centres not stated) the same measures were 274 µM and more than 500 µM.
Regarding `C#CCCCOC1O[C@H](COCc2ccccc2)[C@@H](OCc2ccccc2)[C@H](OCc2ccccc2)[C@H]1OCc1ccccc1` (some centres not stated), the results for the IC50 in assay [1] and in assay [2] were 105 µM and more than 500 µM, respectively.
For `CC#CCOC[C@H]1OC(OCc2ccccc2)[C@H](OCc2ccccc2)[C@@H](OCc2ccccc2)[C@@H]1OCc1ccccc1` (some centres not stated), in that order: more than 500 µM and more than 500 µM.
Take `C#CCOC1O[C@H](COCC#CC)[C@@H](OCc2ccccc2)[C@H](OCc2ccccc2)[C@H]1OCc1ccccc1` (some centres not stated): the IC50 in assay [1] and in assay [2] was more than 500 µM throughout.
Turning to `C#CCOC1O[C@@H]2CO[C@@H](c3ccccc3)O[C@H]2[C@H](O)[C@H]1O` (some centres not stated), the IC50 in assay [1] and in assay [2] was more than 500 µM each time.
In the case of `CC#CCOC1O[C@H](COC(C)=O)[C@@H](OCc2ccccc2)[C@H](OCc2ccccc2)[C@H]1OCc1ccccc1` (some centres not stated), the figures for the IC50 in assay [1] and in assay [2] were 219 µM and 400 µM, respectively.
For `C#CCCO[C@@H]1O[C@@H]2CO[C@@H](c3ccccc3)O[C@H]2[C@H](OCc2ccccc2)[C@H]1OCc1ccccc1` the same measures were more than 500 µM and more than 500 µM.
For `CO[C@H]1O[C@H](COCc2ccccc2)[C@@H](OCc2ccccc2)[C@H](OCc2ccccc2)[C@H]1OCc1ccccc1` the same measures were 191 µM and more than 500 µM.
For `C#CCO[C@H]1O[C@H](COCc2ccccc2)[C@@H](OCc2ccccc2)[C@H](OCc2ccccc2)[C@H]1OCc1ccccc1`, in that order: more than 500 µM and more than 500 µM.
Turning to `C#CCOC[C@H]1O[C@H](OC)[C@H](OCc2ccccc2)[C@@H](OCc2ccccc2)[C@@H]1OCc1ccccc1`, the IC50 in assay [1] and in assay [2] was more than 500 µM throughout.
With `C#CCCOC1O[C@@H]2CO[C@@H](c3ccccc3)O[C@H]2[C@H](OCc2ccccc2)[C@H]1OCc1ccccc1` (some centres not stated), the results for the IC50 in assay [1] and in assay [2] were more than 500 µM and 257 µM, respectively.
`C#CCOC[C@H]1OC(OCc2ccccc2)[C@H](OCc2ccccc2)[C@@H](OCc2ccccc2)[C@@H]1OCc1ccccc1` (some centres not stated): the IC50 in assay [1] is 205 µM; in assay [2], more than 500 µM.
For `C#CCOC[C@H]1OC(OCC#C)[C@H](OCc2ccccc2)[C@@H](OCc2ccccc2)[C@@H]1OCc1ccccc1` (some centres not stated) the same measures were more than 500 µM and more than 500 µM.
`C#CCOC[C@H]1OC(OCC#CC)[C@H](OCc2ccccc2)[C@@H](OCc2ccccc2)[C@@H]1OCc1ccccc1` (some centres not stated): the IC50 was more than 500 µM in assay [1] and 288 µM in assay [2].
For the compound `CC#CCOC1O[C@@H]2CO[C@@H](c3ccccc3)O[C@H]2[C@H](O)[C@H]1O` (some centres not stated), the IC50 in assay [1] and in assay [2] was more than 500 µM each time.
Take `OC[C@H]1OC(OCc2ccccc2)[C@H](OCc2ccccc2)[C@@H](OCc2ccccc2)[C@@H]1OCc1ccccc1` (some centres not stated): the IC50 in assay [1] and in assay [2] was more than 500 µM in each case.
For the compound `C#CCCOC1O[C@H](COC)[C@@H](OCc2ccccc2)[C@H](OCc2ccccc2)[C@H]1OCc1ccccc1` (some centres not stated), the IC50 in assay [1] and in assay [2] was more than 500 µM throughout.
Consider `CC#CCOC1O[C@H](CO)[C@@H](OCc2ccccc2)[C@H](OCc2ccccc2)[C@H]1OCc1ccccc1` (some centres not stated), for which the IC50 is more than 500 µM in assay [1] and 80.4 µM in assay [2].
For `C#CCCCOC1O[C@H](COC)[C@@H](OCc2ccccc2)[C@H](OCc2ccccc2)[C@H]1OCc1ccccc1` (some centres not stated) the same measures were more than 500 µM and more than 500 µM.
For `C#CCOC1O[C@H](COC)[C@@H](OCc2ccccc2)[C@H](OCc2ccccc2)[C@H]1OCc1ccccc1` (some centres not stated), in that order: more than 500 µM and more than 500 µM.
For `CC(=O)OC[C@H]1OC(OCc2ccccc2)[C@H](OCc2ccccc2)[C@@H](OCc2ccccc2)[C@@H]1OCc1ccccc1` (some centres not stated), in that order: 273 µM and 357 µM.
Regarding `C#CCOC1O[C@@H]2CO[C@@H](c3ccccc3)O[C@H]2[C@H](OCc2ccccc2)[C@H]1OCc1ccccc1` (some centres not stated), the IC50 in assay [1] is more than 500 µM; in assay [2], 383 µM.
For `C#CCCCOC1O[C@H](CO)[C@@H](OCc2ccccc2)[C@H](OCc2ccccc2)[C@H]1OCc1ccccc1` (some centres not stated), the IC50 in assay [1] and in assay [2] was more than 500 µM each time.
On to `C#CCCOC1O[C@H](CO)[C@@H](OCc2ccccc2)[C@H](OCc2ccccc2)[C@H]1OCc1ccccc1` (some centres not stated), for which the IC50 in assay [1] and in assay [2] was more than 500 µM each time.
Regarding `C#CCOC1O[C@H](COC(C)=O)[C@@H](OCc2ccccc2)[C@H](OCc2ccccc2)[C@H]1OCc1ccccc1` (some centres not stated), the IC50 in assay [1] is 461 µM; in assay [2], more than 500 µM.
Turning to `C#CCCO[C@H]1O[C@@H]2CO[C@@H](c3ccccc3)O[C@H]2[C@H](OCc2ccccc2)[C@H]1OCc1ccccc1`, the IC50 in assay [1] and in assay [2] was more than 500 µM throughout.
`C#CCO[C@H]1O[C@@H]2CO[C@@H](c3ccccc3)O[C@H]2[C@H](OCc2ccccc2)[C@H]1OCc1ccccc1`: the results for the IC50 in assay [1] and in assay [2] were more than 500 µM and 431 µM, respectively.
For `CO[C@H]1O[C@H](COC(C)=O)[C@@H](OCc2ccccc2)[C@H](OCc2ccccc2)[C@H]1OCc1ccccc1` the same measures were more than 500 µM and more than 500 µM.
As to `C#CCCOC1O[C@@H]2CO[C@@H](c3ccccc3)O[C@H]2[C@H](O)[C@H]1O` (some centres not stated), the IC50 in assay [1] is 463 µM; in assay [2], 207 µM.
For `CC#CCOC1O[C@@H]2CO[C@@H](c3ccccc3)O[C@H]2[C@H](OCc2ccccc2)[C@H]1OCc1ccccc1` (some centres not stated), in that order: more than 500 µM and more than 500 µM.
Consider `C#CCO[C@@H]1O[C@@H]2CO[C@@H](c3ccccc3)O[C@H]2[C@H](OCc2ccccc2)[C@H]1OCc1ccccc1`, for which the IC50 in assay [1] and in assay [2] was more than 500 µM each time.
As to `CC#CCO[C@H]1O[C@H](COCc2ccccc2)[C@@H](OCc2ccccc2)[C@H](OCc2ccccc2)[C@H]1OCc1ccccc1`, the figures for the half-maximal inhibitory concentration (IC50) in assay [1] and in assay [2] were 321 µM and more than 500 µM, respectively.
On to `COC[C@H]1OC(OCc2ccccc2)[C@H](OCc2ccccc2)[C@@H](OCc2ccccc2)[C@@H]1OCc1ccccc1` (some centres not stated), for which the IC50 in assay [1] was more than 500 µM; in assay [2], 435 µM.
As to `C#CCCCOC1O[C@H](COC(C)=O)[C@@H](OCc2ccccc2)[C@H](OCc2ccccc2)[C@H]1OCc1ccccc1` (some centres not stated), the IC50 in assay [1] is 208 µM; in assay [2], more than 500 µM.
